Source: patent US20140315786A1, “USE OF INTRACELLULAR ENZYMES FOR THE RELEASE OF COVALENTLY LINKED BIOACTIVES” (Catabasis Pharmaceuticals, Inc., priority 2011, published 2014)
Each block holds one molecule with its values, some of them ahead of it.

How the values were obtained:
[1] = test system: NFκB; experiment: NFκB-driven luciferase reporter assay in LPS-challenged RAW 264.7 macrophages; format: cell-based; details: Mus musculus, RAW264.7; RAW 264.7, LPS 200 ng/mL; linked bioactive; read-out: IC50 in an NFkB assay
Protocol: RAW 264.7 cells transfected with an NFκB-driven luciferase reporter were plated in 96 well plates. Cells were treated with Vehicle (0.1% ethanol) or test compounds for 2 hours. As a positive control for inhibition of NFκB signaling, 6 wells were treated with […]. Cells were then challenged with 200 ng/mL LPS for 3 hours in the presence of test compounds. A subset of wells treated with vehicle remained unstimulated with LPS to determine the floor signal of the assay. NFκB driven luciferase activity was developed by addition of BriteLite luciferase kit (PERKIN ELMER®) and measured using a Victor V plate reader. NFκB activity (luciferase activity) for each treatment was normalized to Vehicle wells treated with LPS (% NFκB Response).

[2] = molecular target: T1, human recombinant MAG-lipase (Homo sapiens, UniProt Q99685); experiment: Hydrolysis with human recombinant monoacylglycerol lipase, with and without MAGL inhibitor; format: biochemical; details: FIG. 8
T1 construct: purchased Cayman 705192
T1 sequence (Q99685 1-303): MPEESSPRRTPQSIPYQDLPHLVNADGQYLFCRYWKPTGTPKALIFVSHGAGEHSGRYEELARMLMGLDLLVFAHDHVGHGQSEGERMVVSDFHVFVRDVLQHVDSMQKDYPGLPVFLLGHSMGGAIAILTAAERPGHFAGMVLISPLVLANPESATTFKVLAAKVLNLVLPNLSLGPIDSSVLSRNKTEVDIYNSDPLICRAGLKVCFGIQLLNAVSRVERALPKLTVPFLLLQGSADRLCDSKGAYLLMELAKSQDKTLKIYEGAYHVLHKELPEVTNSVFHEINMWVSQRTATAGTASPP
Protocol: Hydrolysis experiment involving Monoacylglycerol lipase (MAGL) with and without a MAGL inhibitor. A commercially available Monoacylglycerol (MAGL) kit from Cayman (Cat #705192) was used for the hydrolysis experiment. The hydrolysis was carried out in Eppendorf tubes by adding together 300 μL of a 10 mM Tris-HCl buffer (pH 7.2, 1 mM EDTA), 20 μL of DMSO, and 20 μL of the human recombinant MAG-lipase. […] The Eppendorf tubes were gently inverted to mix the components and then placed in a 37° C. incubator. A 25 μl, sample was withdrawn at each of the following time points: 0, 5, 10, 15, and 30 min. […] In a separate experiment, the hydrolysis was then repeated in the presence of a MAGL inhibitor (compound JZL184, supplied with the commercially available MAGL kit). Eppendorf tubes were charged with 300 μL of a 10 mM Tris-HCl buffer (pH 7.2, 1 mM EDTA), 20 μL of a […] solution of JZL184 in DMSO in order to make a 5 μM final concentration, and 20 μL of the human recombinant MAG-lipase. […] The Eppendorf tubes were gently inverted to mix the components and then placed in a 37° C. incubator.

[3] = Sprague Dawley rat brain homogenate promoted cleavage of a linked bioactive, with and without FAAH inhibitor URB597; format: in vitro ADME; details: FIG. 1; 5 μM inhibitor
Protocol: The purpose of this assay was to measure the ability of Sprague Dawley rat brain homogenate to hydrolyze a linked bioactive in the presence of fatty acid amide hydrolase inhibitor URB597 (obtained from Cayman Chemical, cat #10046. Brains were harvested from male Sprague Dawley rats and were homogenized 1:4 (grams:mL) in 20 mM 4-(2-hydroxyethyl)-1-piperazineethanesulfonic acid, pH 7.0. Total protein in the rat brain homogenate was determined by a Bradford protein assay.
Linked bioactive was dissolved in methanol at 50 mM. Hydrolysis reactions were conducted with 500 μM of compound in a reaction buffer of 50 mM Hcpcs, 1 mM EDTA, 0.1% Triton X100, pH 8.0, and 1 mg/mL total protein from rat brain homogenate. Reactions were incubated at 37° C. The total reaction volume was 500 μL. Reactions were quenched by transferring 30 μL of reaction into 200 μL of acetonitrile containing 100 ng/mL of internal standard compound, after 0 hours, 1 hour, 2 hours, and 3 hours. […]
Generally, levels of parent linked bioactive and hydrolysis products were measured using an Agilent 1260 HPLC and an Agilent 6410 triple quadrapole mass spectrometer with an electrospray source and using multiple reaction monitoring and relevant mass/charge transitions. […] Injection volumes and flow rates were determined for each specific parent linked bioactive and relative hydrolysis products. […]

[4] = molecular target: T2, FAAH-1 (Homo sapiens, UniProt O00519); experiment: Hydrolysis in homogenate of COS-7 cells overexpressed with FAAH-1; format: biochemical; details: 5 μM inhibitor
T2 construct: expressed in transfected cells; host or cells: COS-7
T2 sequence (O00519 1-579): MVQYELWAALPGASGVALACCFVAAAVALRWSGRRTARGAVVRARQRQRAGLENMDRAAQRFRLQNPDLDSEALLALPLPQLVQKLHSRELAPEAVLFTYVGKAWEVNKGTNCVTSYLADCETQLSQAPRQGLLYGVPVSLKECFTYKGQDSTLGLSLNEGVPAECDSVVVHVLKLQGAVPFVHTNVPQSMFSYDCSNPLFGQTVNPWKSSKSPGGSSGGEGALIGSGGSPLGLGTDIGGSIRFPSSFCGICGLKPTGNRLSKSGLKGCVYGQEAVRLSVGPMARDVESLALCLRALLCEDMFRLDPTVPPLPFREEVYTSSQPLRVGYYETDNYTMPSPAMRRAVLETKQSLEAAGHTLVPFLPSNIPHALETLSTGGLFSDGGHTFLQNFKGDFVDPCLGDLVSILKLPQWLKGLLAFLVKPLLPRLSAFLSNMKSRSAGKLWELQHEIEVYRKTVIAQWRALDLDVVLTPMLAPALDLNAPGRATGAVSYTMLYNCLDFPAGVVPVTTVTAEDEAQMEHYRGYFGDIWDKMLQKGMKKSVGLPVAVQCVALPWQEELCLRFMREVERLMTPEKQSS
Protocol: (§1) Hydrolysis experiments using COS-7 cells overexpressed with either FAAH-1 or FAAH-2. […] The next day, cells were transfected, in duplicate, with 10 μg Vector control, flag-FAAH-1 or flag-FAAH-2 plasmids using Lipofectamine 2000 (Invitrogen) according to the manufacturer's protocol. 24 hours post transfection, cells were washed 1× in cold PBS, aspirated dry, and then scraped off the plate in the presence of 0.6 mL reaction buffer (50 mM HEPES, pH 9.0; 1 mM EDTA). Cells were then homogenated using a VWR VDI 12 Adaptable Homogenizer, on ice for 1 minute, and the sample was then clarified by centrifugation at 6,000 g for 5 minutes. The supernatant of this homogenated fraction was then used for FAAH hydrolysis assays. […] Gel densitometry was performed and the % FAAH extracted in each successive lysis conditions was determined according to standard procedures.
(§2) The following hydrolysis experiments were performed using COS-7 cells containing overexpressed FAAH-1 or FAAH-2. […] Briefly, the hydrolysis experiments were carried out in Eppendorf tubes using procedures similar to the one described above. […] At time=0, 1, and 3 h, the protein was precipitated with acetonitrile.

[5] = molecular target: T3, FAAH-2 (Homo sapiens, UniProt Q6GMR7); experiment: Hydrolysis in homogenate of COS-7 cells overexpressed with FAAH-2; format: biochemical; details: 5 μM inhibitor
T3 construct: expressed in transfected cells; host or cells: COS-7
T3 sequence (Q6GMR7 1-532): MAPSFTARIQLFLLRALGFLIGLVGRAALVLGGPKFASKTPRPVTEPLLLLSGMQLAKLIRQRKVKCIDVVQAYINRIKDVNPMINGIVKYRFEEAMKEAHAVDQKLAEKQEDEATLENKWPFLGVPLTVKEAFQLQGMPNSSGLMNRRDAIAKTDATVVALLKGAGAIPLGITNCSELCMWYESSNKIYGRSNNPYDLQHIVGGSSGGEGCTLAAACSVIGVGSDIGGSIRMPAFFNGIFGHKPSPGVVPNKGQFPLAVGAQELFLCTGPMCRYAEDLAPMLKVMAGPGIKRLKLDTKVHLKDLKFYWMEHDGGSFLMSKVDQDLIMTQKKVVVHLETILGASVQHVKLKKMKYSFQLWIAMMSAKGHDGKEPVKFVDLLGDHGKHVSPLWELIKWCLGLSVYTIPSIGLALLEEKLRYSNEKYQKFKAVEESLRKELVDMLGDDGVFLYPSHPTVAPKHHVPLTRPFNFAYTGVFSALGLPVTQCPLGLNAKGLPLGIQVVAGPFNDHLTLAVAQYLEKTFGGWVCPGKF
Protocol: as §1, §2

[6] = test system: LTB4; experiment: LTB4 assay (HTRF) in differentiated HL-60 cells stimulated with A23187; format: cell-based; details: Homo sapiens, linked bioactive
Protocol: The LTB4 assay was conducted using a commercial kit (CISBIO, Bedford, Mass.) in HL-60 cells. HL-60 cells were maintained in IMEM supplemented with 20% serum in 37° C. in 5% CO2. Media was changed 2 times a week and cells kept at a density of 2×10^5 to 1×10^6 cells/ml.
Before the experiment cell culture media was changed to 10% serum and HL-60 cells were differentiated for 3 days in 1.3% DMSO. On day 3 cells were concentrated 2 times in the DMSO containing media and 1 ml cell suspension/well plated in 24-well plates. BSA controls or CAT compounds prepared in 1% BSA from an ethanol or DMSO stock solution were added to the wells and the cell were incubated for 21 hours. Next day, cells were transferred to Eppendorf tubes centrifuged at 300×g and rinsed once in DPBS. Cells were re-suspended in 300 μl DPBS containing 2% FBS (assay buffer), and 80 μl/well was plated in 96-well plates (black sides, clear bottom). Some cells were pre-incubated with 10 μM NDGA, a LOX inhibitor. To initiated LTB4 secretion, cells were stimulated with the calcium ionophore A23187 (5 μM) for 15 min. […] LTB4 content in the supernatant was assessed by a homogeneous time resolved fluorescence (HTRF) LTB4 assay from CISBIO, in a 384-well plate format. […] Cell viability was determined in the 96-well plate by CellTiter-Glo (Promega, Madison, Wis.).

SMILES: CC/C=C\C/C=C\C/C=C\C/C=C\C/C=C\C/C=C\CCC(=O)Nc1ccc(O)c(C(=O)O)c1 [II-1, 5-(4Z,7Z,10Z,13Z,16Z,19Z)-docosa-4,7,10,13,16,19-hexaenamido-2-hydroxybenzoic acid]
IC50 [1]: 40000 to 50000 nM | hydrolysis using human recombinant MAG-lipase (remaining compound) ([2]; 5 μM final concentration, 37° C., 0-30 min, no inhibitor): time-dependent hydrolysis

SMILES: O=C(Oc1ccc([N+](=O)[O-])cc1)N1CCC(C(O)(c2ccc3c(c2)OCO3)c2ccc3c(c2)OCO3)CC1 [JZL184, reference compound]
effect of MAGL inhibitor on rate of hydrolysis of compound II-1 ([2]; 5 μM inhibitor): reduced significantly

SMILES: NC(=O)c1cccc(-c2cccc(OC(=O)NC3CCCCC3)c2)c1 [URB597]
effect of FAAH inhibitor on hydrolysis of the linked bioactive by rat brain homogenate [3]: essentially eliminated | effect of inhibitor on rate of hydrolysis of compound I-1, FAAH-1 ([4]; FIG. 9A): significantly reduced | effect of inhibitor on rate of formation of DHA from compound I-1, FAAH-1 ([4]; FIG. 9C): significantly inhibited | effect of inhibitor on hydrolysis of compound I-1, FAAH-2 ([5]; FIG. 9B): significantly reduced | effect of inhibitor on formation of DHA from compound I-1, FAAH-2 ([5]; FIG. 9D): more effective in reducing the formation of DHA

The remaining lines, values ahead:

IC50 [6]: 2200 nM
SMILES: CC/C=C\C/C=C\C/C=C\C/C=C\C/C=C\C/C=C\CCC(=O)NCCNC(=O)C(C)c1ccc(CC(C)C)cc1 (stereo not shown) [VIIa-1, (4Z,7Z,10Z,13Z,16Z,19Z)-N-(2-(2-(4-isobutylphenyl)propanamido)ethyl)docosa-4,7,10,13,16,19-hexaenamide]

IC50 [6]: 1600 nM
SMILES: CC/C=C\C/C=C\C/C=C\C/C=C\C/C=C\C/C=C\CCC(=O)N[C@@H](CCCCNC(=O)C(C)c1ccc(CC(C)C)cc1)C(=O)O (stereo partly drawn) [VIIa-2, (2S)-2-((4Z,7Z,10Z,13Z,16Z,19Z)-docosa-4,7,10,13,16,19-hexaenamido)-6-(2-(4-isobutylphenyl)propanamido)hexanoic acid]
